# Read-outs that look alike come from different tables or passages of the source.
# Columns and labels:
# [1] = system: αMSH-stimulated B16F10 cells; assay: Melanin content in αMSH-stimulated B16F10 cells; type: cell-based, mouse; parameters: dose or concentration left out as unconfirmed; details: αMSH-stimulated B16F10, 48 hours
# Method: B16F10 cells were seeded at 1×10^5 cells/well in 12-well plates and incubated for 24 hours. The test compounds were then added in presence or absence of αMSH (100 nM), and further incubated for another 48 hours. For evaluation of melanin content, cells were trypsinized, washed in PBS and then 250 μL of 1N NaOH was added and heated to 70° C. to solubilize melanin. The aliquots were then transferred to a 96-well plate and absorbance was read at 475 nm using microplate reader. The absorbance of melanin was normalized by total protein contents and reported as % of control.
# HEM-DP cells [2] = assay: Melanin content quantification in human epidermal melanocytes; type: cell-based; details: 48 hours
# Method: Primary cultures of human epidermal melanocytes from a darkly pigmented donor were seeded at 2.2×10^5 cells/well in 1.5 ml media in 12-well plates and incubated for 48 hours. The test compounds were added to cultures and controls were treated with 0.16% DMSO, and further incubated for another 48 hours. For evaluation of melanin content, cells in the wells were trypsinized and cell pellets were washed in PBS. After aspiration, 250 μL of 1N NaOH was added and heated to 70° C. to solubilize melanin. The aliquots were then transferred to a 96-well plate and absorbance was read at 475 nm using microplate reader. A portion of the lysate was used to evaluate total protein content using […] bincinchonic acid (BCA) assay (Pierce BCA kit, Thermo Scientific). The absorbance of melanin was normalized to the total protein content for each lysate and reported as % of control.
# [3] = biological target: T1, cellular tyrosinase in HEM-DP cells (Homo sapiens, UniProt P14679); assay: Intracellular tyrosinase activity in human melanocytes; type: cell-based; details: 48 hours
# T1 construct: endogenous in cells; host or cells: HEM-DP (primary human epidermal melanocytes, darkly pigmented donor)
# T1 sequence (P14679 19-529): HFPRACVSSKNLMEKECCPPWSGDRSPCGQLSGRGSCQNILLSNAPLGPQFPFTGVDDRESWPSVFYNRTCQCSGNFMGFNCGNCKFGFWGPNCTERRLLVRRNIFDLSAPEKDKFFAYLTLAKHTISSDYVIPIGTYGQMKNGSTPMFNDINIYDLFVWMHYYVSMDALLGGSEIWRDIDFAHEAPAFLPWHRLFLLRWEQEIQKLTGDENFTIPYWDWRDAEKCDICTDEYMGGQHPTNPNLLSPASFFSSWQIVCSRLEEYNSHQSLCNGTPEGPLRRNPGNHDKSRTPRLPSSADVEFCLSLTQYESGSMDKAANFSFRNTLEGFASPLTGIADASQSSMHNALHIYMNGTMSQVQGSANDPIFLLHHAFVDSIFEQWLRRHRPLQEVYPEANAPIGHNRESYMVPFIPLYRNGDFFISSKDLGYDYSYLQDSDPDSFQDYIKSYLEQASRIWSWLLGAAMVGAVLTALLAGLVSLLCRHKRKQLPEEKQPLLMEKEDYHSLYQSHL
# Method: We quantitated the cellular tyrosinase activity of human melanocytes based on established methods. Briefly, human epidermal melanocytes from a darkly pigmented donor (HEM-DP) were cultured in 12-well tissue culture plates at density of 1.5×10^5 cells/well. After 48 hrs. media was changed and test compounds were added, and further incubated for 48 hrs. At the end of treatments, cells were trypsinized and cell pellets were washed in PBS and lysed with lysis buffer under ice for 30 minutes and then centrifuged to remove cellular debris. 50 μl of lysates were then aliquoted in 96-well microplate and 150 μl of freshly prepared 3 mM L-DOPA was added. The absorbance was then measured kinetically at 475 nm every 30 seconds for 30 minutes at 30° C. using microplate reader (Versamax®). The % inhibition of tyrosinase activity was calculated by determining melanin formation rates from the linear range of the slopes of melanin formation over time for the different samples and calculating % inhibition from the measured velocities of melanin formation.
# [4] = system: B16F10 mouse melanoma cells; type: cell-based; details: for cell viability: mouse, 48 h
# Method: In order to test the four CMCs (CMC2.14, CMC2.24, CMC2.5 and CMC2.23) alongside PC and THC, for their effects on melanin content, we first screened their nontoxic concentrations using MTS cytotoxicity (Promega CellTiter Aqueous One) assay. MTS is a tetrazolium salt which is reduced to purple colored formazan upon reaction with mitochondrial dehydrogenases. Briefly, B16F10 cells were seeded at 4×10^3 cells/well in 96-well plates for 24 hrs. […] Controls were treated with 0.16% DMSO. At the end of 48 hours, medium was aspirated and replaced by 100 μl of fresh media. MTS (20 μl) was added and incubated for 40 minutes and absorbance read at 490 nm using a Versamax® microplate reader. Cell viability was calculated from the absorbance values relative to control groups and expressed in %.
# [5] = system: intracellular ROS in B16F10 cells; assay: Intracellular ROS assay (H2DCFDA) in B16F10 cells; type: cell-based, mouse; details: 48 hours
# Method: Intracellular ROS generation was quantified using 2′,7′-dichlorodihydrofluorescein diacetate (H2DCFDA), a non-fluorescent dye which is trapped intracellularly by cleavage by intracellular esterases after reaction with reactive oxygen species (ROS); only the product, DCF, is fluorescent. For measuring intracellular ROS, B16F10 cells were seeded in 24 well plates at 4×10^4 cells/well. After 24 hours, media was aspirated and PC, THC and CMCs were added to the wells at different concentrations and further incubated for 48 hours. At the end of the incubations, the media was aspirated and cells were washed with PBS. DCFDA (Molecular Probes) was dissolved in DMSO to make 10 mM stock. DCFDA dye working stock (50 μM) was prepared by diluting the stock in DMEM (serum-free, phenol-red free and sodium pyruvate free) media and added to cells and further incubated for 45 minutes at 37° C. The cells were then washed with DPBS and fluorescence was read in bottom read mode, using a fluorescence microplate reader (Gemini EM Spectramax, Molecular Devices) set to excitation and emission wavelengths of 485 nm and 535 nm, respectively. Data was expressed as relative fluorescence % of treated vs. control.
# [6] = system: normal human dermal fibroblasts (NHDF); assay: MTS cytotoxicity test with human dermal fibroblasts; details: 48 hours
# Method: Briefly 5×10^3 cells/well were plated in 96 wells and compounds added for 48 hours. MTS assay was then conducted and plate incubated for 1 hour and then 100 μl of supernatants were aliquoted into 96 well plates and absorbance read at 490 nm using Versamax microplate reader.
# [7] = Copper chelating activity assay (pyrocatechol violet); type: physicochemical; details: PV dye method
# Method: Metal ion chelation activity can be detected by pyrocatechol violet indicator assay which is similar to that reported in other studies with some modifications [Baek, S-H. et al. 2015]. Briefly, 100 μl of sample containing different concentrations of solutes were mixed with 50 mM sodium acetate buffer (pH 6.0) in a 96 well plate. Control group consisted of buffer only; KA at 500 μM was used as a positive control. Copper sulfate (2 mM; 10 μl) was added to the samples and incubated for 10 minutes. 10 μl of 2 mM pyrocatechol violet was then added and the plate was further incubated for 20 minutes. The absorbance was read at 632 nm using a microplate reader (Versamax). Lower absorbance compared to control was indicative of copper chelation.
# B16F10 cells = assay: Melanin content quantification in B16F10 cells; type: cell-based, mouse; details: Mus musculus, B16-F10
# Method: B16F10 cells were seeded at 1×10^5 cells/well in 1.5 ml media in 12-well plates and incubated for 24 hours. […] For quantification of melanin content, cells were trypsinized and cell pellets were washed in PBS. Cell pellets were also visually observed for lightening of the intracellular pigment. After aspiration, 250 μL of 1N NaOH was added and heated to 70° C. to solubilize melanin. The aliquots were then transferred to a 96-well plate and absorbance was read at 475 nm using a microplate reader. A portion of the lysate was used to evaluate total protein content using BCA assay. The melanin absorbance was normalized by total protein content and expressed as % of control.
# MITF = MITF protein levels by cell-based ELISA in B16F10 cells; parameters: species or system mouse; details: B16F10, 10 μM, 48 hours
# Method: MITF is the master regulator of melanogenesis and a known transcription factor for tyrosinase gene. The effects of PC and CMCs on micropthalmia transcription factor (MITF) proteins levels were assayed using a cell-based ELISA (LifeSpan Biosciences, Seattle). Briefly, B16F10 cells were cultured in a 96-well plate at 1×10^4 cells/well for 24 hours and then media was replaced with fresh media containing compounds in 0.1% DMSO for further 48 hours. The cells were then fixed and subsequent steps were conducted based on manufacturer instructions. The absorbance of MITF expression levels were normalized by absorbance of crystal violet stain (0.05%) and data was reported as % of control.
# HaCaT cells = details: human, 48 h, 10 μM
# Method: Briefly, 2×10^4 cells/well were seeded in 96-well plates and after 24 hours, the compounds at concentrations of 5-25 μM were added to the wells and incubated for 48 hours. Absorbance was read after 1 hour of incubation of plates and results were expressed as % of control.
# HEM-DP cells [8] = assay: MTS cytotoxicity test with human epidermal melanocytes; type: cell-based; details: 5-25 μM, 48 hours
# Method: For screening cytotoxicity of PC, THC and CMCs during 48 hours incubation on HEM-DP cells, we conducted MTS cytotoxicity assay. […] MTS reagent was added and incubated for 90 minutes and absorbance was read at 490 nm. The results are expressed as % relative to control.
structure (smiles),measurement,setting,value
"O=c1cc(CO)occ1O [KA, kojic acid, reference compound]",reduction of melanin,[1],20%
same,reduction in melanin content,HEM-DP cells [2]; 1 mM,10%
"COc1cc(/C=C/C(=O)CC(=O)/C=C/c2ccc(O)c(OC)c2)ccc1O [PC, Curcumin]",inhibition of cellular tyrosinase activity,[3]; 5 μM,significantly (p<0.01) inhibited
same,inhibition of cellular tyrosinase activity,[3]; 10 μM,significantly (p<0.01) inhibited
same,"cytotoxicity, overall ranking",[4],most cytotoxic
same,increase of cell proliferation,"[4]; B16F10, 5 μM, 48 hours, MTS",13%
same,cell viability,[4]; 20 μM,24.44%
same,cell viability,[4]; 25 μM,16.55%
same,reduction of intracellular ROS,"[5]; B16F10, 10 μM",24%
same,cell viability,"[6]; 10 μM, MTS",71.9%
same,toxicity,[6]; range tested 5-25 μM,significantly toxic
same,copper chelating activity,[7],did not show any effect
same,inhibition at 10 µM,"B16F10 cells; B16F10, 10 μM, 48 hours",32.1%
same,IC50,"B16F10 cells; B16F10 cells exposed for 48 hours, non-linear curve fitting, read-out: IC50-Melanin Inhibition",20.8 µM
same,inhibition of MITF protein levels,MITF,≤ 30%
same,effect on melanin content (words),HEM-DP cells [2]; nontoxic concentrations tested (PC 5 and 10 μM),did not show any significant difference
same,cell viability,HaCaT cells,90.12%
"COc1cc(CCC(=O)CC(=O)CCc2ccc(O)c(OC)c2)ccc1O [THC, Tetrahydrocurcumin]",cytotoxicity,HEM-DP cells [8],nontoxic
same,inhibition at 25 µM,[3]; 25 μM,24%
same,reduction of intracellular ROS,"[5]; B16F10, 5 μM",24%
